One series addresses T1, NPR-B (Mus musculus, UniProt Q6VVW5).
T1 construct: These cells express endogenously NPR-B on the cell surface; endogenous in cells; host or cells: NIH-3T3 (murine embryo fibroblasts)
T1 sequence (Q6VVW5 17-1047): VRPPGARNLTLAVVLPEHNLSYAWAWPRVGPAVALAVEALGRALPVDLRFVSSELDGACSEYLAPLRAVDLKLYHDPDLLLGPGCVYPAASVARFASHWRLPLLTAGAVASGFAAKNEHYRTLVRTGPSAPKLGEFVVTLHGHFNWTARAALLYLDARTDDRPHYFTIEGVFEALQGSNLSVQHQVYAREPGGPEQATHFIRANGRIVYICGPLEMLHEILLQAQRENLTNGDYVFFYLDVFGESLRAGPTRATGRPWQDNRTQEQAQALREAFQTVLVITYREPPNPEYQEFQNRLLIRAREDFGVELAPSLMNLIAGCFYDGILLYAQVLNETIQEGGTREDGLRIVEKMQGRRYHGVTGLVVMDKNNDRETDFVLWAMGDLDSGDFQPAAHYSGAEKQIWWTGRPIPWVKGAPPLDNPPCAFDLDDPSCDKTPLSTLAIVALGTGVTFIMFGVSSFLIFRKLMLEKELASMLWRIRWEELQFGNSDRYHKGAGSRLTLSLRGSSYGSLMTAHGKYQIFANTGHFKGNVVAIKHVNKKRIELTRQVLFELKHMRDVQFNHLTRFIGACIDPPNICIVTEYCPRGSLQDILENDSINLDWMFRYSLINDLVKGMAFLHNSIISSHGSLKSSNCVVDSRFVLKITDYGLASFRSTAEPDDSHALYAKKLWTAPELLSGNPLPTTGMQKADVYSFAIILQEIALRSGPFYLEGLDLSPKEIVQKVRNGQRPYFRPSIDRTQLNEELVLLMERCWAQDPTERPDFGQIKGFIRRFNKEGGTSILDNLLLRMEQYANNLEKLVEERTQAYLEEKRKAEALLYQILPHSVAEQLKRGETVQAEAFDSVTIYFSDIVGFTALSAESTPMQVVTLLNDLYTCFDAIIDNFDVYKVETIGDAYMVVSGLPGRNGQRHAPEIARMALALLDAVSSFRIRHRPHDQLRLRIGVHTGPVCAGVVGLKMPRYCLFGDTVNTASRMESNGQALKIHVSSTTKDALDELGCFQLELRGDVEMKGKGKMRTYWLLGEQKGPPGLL
The series can be described thus: Functional cGMP stimulation in NIH-3T3 cells with CNP variants. The class given is cell-based, Murine. The conditions noted are these: cGMP TR-FRET, 30 min, 37° C. The procedure: Functional activity of CNP variants were determined in a cell-based assay with NIH-3T3 cells (Murine Embryo Fibroblast cell line). These cells express endogenously NPR-B on the cell surface. Stimulation of NPR-B with CNP leads to intracellular production of the second messenger cGMP which is detected with a commercially available cGMP assay. NIH-3T3 cells were routinely cultured in DMEM F-12 medium with 5% FBS and 5 mM glutamine at 37° C. and 5% CO2. For each assay, 50,000 cells were resuspended in stimulation buffer (Dulbecco's PBS with IBMX) and incubated with the CNP variants in different concentrations. CNP (dilutions were made in PBS with 0.2% BSA). After incubation of 30 min at 37° C. and 5% CO2, the cells were lyzed and cGMP levels were determined with a commercially available cGMP TR-FRET assay (Cisbio, cGMP kit, Cat. No. 62GM2PEB). PEGylated CNP variants were always characterized in comparison with the non-PEGylated version in the same experiment batch. If possible, evaluation of the residual activity was done via the EC50- parameter of the resulting dose-response curve (restricted model with common slope).
After 7 d, released CNP-38 was isolated by RP-HPLC and analyzed for bioactivity as described in Example 22.

The next series has as its target recombinant human NEP (Homo sapiens, UniProt P08473). Briefly: Digest of CNP variants by Neutral Endopeptidase in vitro (NEP digest assay). The conditions noted are these: pH 7.4.
Another series deals with T2, NPR-C (Homo sapiens, UniProt P17342).
T2 sequence (P17342 27-541): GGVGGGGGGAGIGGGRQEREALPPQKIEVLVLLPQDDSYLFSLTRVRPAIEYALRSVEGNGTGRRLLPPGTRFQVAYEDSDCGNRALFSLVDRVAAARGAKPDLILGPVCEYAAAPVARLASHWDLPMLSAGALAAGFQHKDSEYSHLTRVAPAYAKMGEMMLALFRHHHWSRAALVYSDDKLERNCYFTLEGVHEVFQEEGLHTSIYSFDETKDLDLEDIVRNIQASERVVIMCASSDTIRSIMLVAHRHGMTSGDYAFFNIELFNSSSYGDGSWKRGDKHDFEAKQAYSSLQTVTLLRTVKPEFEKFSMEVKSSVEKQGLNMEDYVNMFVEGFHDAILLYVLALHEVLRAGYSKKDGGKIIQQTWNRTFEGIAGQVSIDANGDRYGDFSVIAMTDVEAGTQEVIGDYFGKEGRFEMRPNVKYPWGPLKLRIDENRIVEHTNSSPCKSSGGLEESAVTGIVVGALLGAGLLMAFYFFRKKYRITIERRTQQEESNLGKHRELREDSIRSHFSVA
Briefly: NPR-C affinity assay (competition with fluorescein-labelled CNP 27d, flow cytometry). The conditions noted are these: NPR-C expressing Hek293 cell line. For orientation: Flow cytometry measures light scatter and fluorescence of single cells or particles in a stream.

Series [1] is described as follows: Evaluation of cardiovascular effects in the conscious telemetered mouse (subcutaneous administration). The class given is in vivo. The conditions noted are these: for MAP during the remaining ten time points versus vehicle / change in MAP at the 5, 15 and 30 min post dose time points compared to predose / MAP (mean ± SD): 800 μg CNP-38 (eq)/kg sc; for MAP during the remaining ten time points versus vehicle: 1 to 48 hours postdose; for change in MAP at the 5, 15 and 30 min post dose time points compared to predose: CNP-38: 3 of 4 animals. The procedure: Male Crl:CDl(ICR) mice (age range 8-13 weeks and body weight range 27.3-35.6 g at start of dosing) were surgically implanted with a TA11PA-C10 telemetry transmitter (Data Sciences International (DSI)) in the carotid artery. The body of the transmitter was placed subcutaneously in the lateral flank of the mouse. The mice were dosed subcutaneously in a latin square crossover design with at least 72 hours between dosing occasions. […] At least four mice were included at each dose level. Blood pressure (systolic (SAP), diastolic (DAP) and mean (MAP) and heart rate (HR, derived from blood pressure), were recorded using a digital data capture system linked with a DSI™ Ponemah data acquisition and analysis system. The capture system allowed recording of the cardiovascular parameters whilst the mice were in individual cages. On the day of each test session the animals were weighed and a predose recording was performed for at least 60 min prior to dosing. Each mouse was returned to the home cage and the cardiovascular parameters were recorded for approximately 48 hours postdose. Blood pressure and HR were reported at the following time points: -30, -20, -10, 5, 15 and 30 min postdose and 1, 2, 6, 12, 18, 24, 30, 36, 42 and 48 hours postdose. Each time point was presented as the average value of five minute's recording prior to the time point. The monitoring period was selected to cover exposure to the test items both prior to and after Tmax.

Series [2] in a line: Pharmacokinetic profile of CNP-38 after subcutaneous single-dose administration to cynomolgus monkeys. The class given is in vivo.
Method: Blood samples were collected at 5, 10, 15, 30, 45 min and 1, 2, 4, 8 hours upon dose.
Method: Plasma levels of CNP were analysed using a commercially available competitive radioimmuno-assay (RK-012-03, Phoenix Pharmaceuticals, CA). The assay was applied essentially as described by the manufacturer. The assay is based on competitive binding between 1251-labelled CNP (supplied in the kit) and unlabeled CNP (from study sample or calibrants) to an anti-CNP antibody. […] By measuring the amount of 1251-labelled CNP bound as a function of the concentration of peptide, it is possible to construct a calibration curve from which the concentration of peptide in the sample can be determined.
A few changes to the supplied assay protocol were made. These changes included using in-house CNP calibrant and QC samples to secure consistency between assay runs. […] Due to matrix effects in monkey plasma, the minimal required dilution was set at 1:10, yielding an assay range of 150-1080 μg/mL CNP.
Series [3] deals with Neutral Endopeptidase (NEP) (Homo sapiens, UniProt P08473). Briefly: in vitro. The conditions noted are these: pH 7.4.
Neutral Endopeptidase (NEP), sequence (P08473 whole entry): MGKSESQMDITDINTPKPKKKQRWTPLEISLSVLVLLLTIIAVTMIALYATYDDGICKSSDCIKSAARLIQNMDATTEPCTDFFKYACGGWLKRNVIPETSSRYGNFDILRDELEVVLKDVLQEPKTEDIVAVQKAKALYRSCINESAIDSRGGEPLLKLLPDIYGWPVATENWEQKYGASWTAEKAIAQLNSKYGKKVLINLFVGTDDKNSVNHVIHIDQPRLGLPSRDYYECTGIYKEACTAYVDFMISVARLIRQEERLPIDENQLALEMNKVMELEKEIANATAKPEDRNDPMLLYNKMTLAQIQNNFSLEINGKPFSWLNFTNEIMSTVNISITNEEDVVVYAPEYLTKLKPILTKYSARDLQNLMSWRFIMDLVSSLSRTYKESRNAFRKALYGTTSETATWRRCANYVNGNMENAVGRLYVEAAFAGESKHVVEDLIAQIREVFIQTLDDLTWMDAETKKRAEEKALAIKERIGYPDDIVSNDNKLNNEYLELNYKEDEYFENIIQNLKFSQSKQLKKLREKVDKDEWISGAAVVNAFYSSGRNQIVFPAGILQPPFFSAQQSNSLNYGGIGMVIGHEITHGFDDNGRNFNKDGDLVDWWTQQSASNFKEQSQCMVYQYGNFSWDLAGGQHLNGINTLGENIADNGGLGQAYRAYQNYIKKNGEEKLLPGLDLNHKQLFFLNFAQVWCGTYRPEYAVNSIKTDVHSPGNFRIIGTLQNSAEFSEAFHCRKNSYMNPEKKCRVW
Method: (§1) In order to determine the in vitro stability of various CNP variants including different peptide chain lengths and PEGylations using different PEGylation sites and PEG molecules in the presence of Neutral Endopeptidase (NEP), a NEP digest assay was established. This assay monitored the decrease of the non-digested CNP variant (normalized with the internal standard PFP) over time in reference to the t0-time point.
(§2) In detail, recombinant human NEP (2.5 μg/mL final concentration) and the standard pentafluorophenol (PFP; 40 μg/mL final concentration) were added to the CNP variant (100 μg CNP equivalents/mL) in digest buffer (50 mM Tris-HCl, pH 7.4, 10 mM NaCl). The solution was incubated at 37° C. and 500 rpm for up to 4 days. Samples were taken at different time intervals. The reaction was stopped by a combined reduction and heat denaturation adding TCEP (tris(2-carboxyethyl)phosphine; 25 mM final concentration) and incubating the mixture at 95° C., 500 rpm for 5 minutes. The resulting reaction products were assigned using HPLC-MS. The half life of each CNP variant was calculated via the ratio change in the HPLC-UV peak areas of CNP and PFP over time.
The conditions of series [4]: in vivo; cited from earlier work.
The conditions of series [5]: doses up to 15 μg/kg, healthy volunteers; cited from earlier work.
[6] abbreviates: male, cynomolgus monkey, in vivo, sc, 40 ug/kg.

Where two headings read alike, the source gives them in different places. Where only a bound is given, the exact number is not on record here.

recombinant human NEP, sequence (P08473 whole entry): as above
Method for recombinant human NEP: as §1, §2

In the case of “Permanent Lys26 CNP-38 PEG 5 kDa Conjugate [Conjugate 19e]”, on NPR-B, the “EC50 compound/EC50 CNP-38 (residual NPR-B activity)” value is greater than 100. In addition, the “half life norm.” value with recombinant human NEP worked out at 62.76 h. For the same compound, the “IC50 of PEGylated CNP-38/IC50 CNP-38 (residual NPR-C affinity)” value at NPR-C worked out at 1.1.

For the compound “Permanent Lys22 CNP-34 PEG 5 kDa Conjugate [Conjugate 18e]”, the “half life norm.” value with recombinant human NEP is 38.87 h.

By AUC(0-t) is commonly meant exposure summed from dosing to a finite time, without extrapolation to infinity. By Cmax is commonly meant the maximum level reached in the sampled fluid or tissue. As a reminder, the Tmax is the time from dosing to the highest level. The half-life is the time in which the quantity being followed falls by half. On to `CC[C@H](C)[C@@H]1NC(=O)[C@H](CCCNC(=N)N)NC(=O)[C@H](CC(=O)O)NC(=O)[C@H](CC(C)C)NC(=O)[C@H](CCCCN)NC(=O)[C@H](CC(C)C)NC(=O)CNC(=O)[C@H](Cc2ccccc2)NC(=O)[C@@H](NC(=O)CNC(=O)[C@H](CCCCN)NC(=O)[C@H](CO)NC(=O)[C@H](CC(C)C)NC(=O)CNC(=O)[C@H](CCCCN)NC(=O)[C@H](CCCCN)NC(=O)[C@H](CC(N)=O)NC(=O)[C@H](C)NC(=O)CNC(=O)[C@H](CCCCN)NC(=O)[C@H](Cc2ccc(O)cc2)NC(=O)[C@H](CCCCN)NC(=O)[C@H](CCCNC(=N)N)NC(=O)[C@H](C)NC(=O)[C@H](CC(N)=O)NC(=O)[C@@H]2CCCN2C(=O)[C@H](Cc2c[nH]cn2)NC(=O)[C@H](CCC(=O)O)NC(=O)[C@H](CCC(N)=O)NC(=O)[C@@H](N)CC(C)C)CSSC[C@@H](C(=O)O)NC(=O)CNC(=O)[C@H](CC(C)C)NC(=O)CNC(=O)[C@H](CO)NC(=O)[C@H](CCSC)NC(=O)[C@H](CO)NC(=O)CNC1=O` [CNP-38, reference compound], for which, in series [1], the “MAP during the remaining ten time points versus vehicle” value was “no difference in MAP”. The “change in MAP at the 5, 15 and 30 min post dose time points compared to predose” value in series [1] is recorded as “significant decrease in MAP”. The “MAP (mean ± SD)” value in series [1] (5 min post dose) was found to be 102.0 ± 7.5 mmHg; in series [1] (15 min post dose) it was 89.5 ± 29.4 mmHg; in series [1] (30 min post dose) it was 99.5 ± 25.2 mmHg; in series [1] (predose) it was 106.8 ± 13.4 mmHg. The same compound showed an area under the curve AUC(0-t) in series [2] (setting [6]) of 2.5 ng·h/mL. Besides, the peak level in series [2] (setting [6]) (Cmax) was 7.9 ng/mL. In series [2] (setting [6]), the Tmax was 0.167 h. Moreover, the half-life in series [2] (male, cynomolgus monkey, in vivo, sc, 40 ug/kg, Half-life (mean)) is roughly 7 min. In addition, the tolerability result in series [2] (single s.c. 40 μg/kg) is given as “well tolerated”. In series [3], the half-life at 100 μg CNP equivalents/mL was 12.1 h.

Consider BMN-111, for which the half-life in series [4] is 0.333 h. Moreover, the blood pressure effect result in series [5] was “mild hypotension”.

Regarding “Permanent Lys26 CNP-38 PEG4×10 kDa Conjugate [Conjugate 12g]”, the “half life norm. [h]” value with recombinant human NEP is reported as “Almost no proteolysis”.

On to “Permanent N-Terminal CNP-38 PEG 5 kDa Conjugate [Conjugate 15e]”, for which the “EC50 compound/EC50 CNP-38 (residual NPR-B activity)” value at NPR-B was greater than 5. Moreover, the “half life norm. [h]” value with recombinant human NEP is recorded as “Almost no proteolysis”. For the same compound, the “IC50 of PEGylated CNP-38/IC50 CNP-38 (residual NPR-C affinity)” value on NPR-C amounted to 0.53.

With “Permanent Lys16 CNP-34 PEG 5 kDa Conjugate [Conjugate 17e]”, in the series with recombinant human NEP, the “half life norm.” value was found to be 54.23 h.

As for “Permanent N-Terminal CNP-34 PEG 5 kDa Conjugate [Conjugate 14e]”, the “half life norm. [h]” value with recombinant human NEP is reported as “Almost no proteolysis”.

With “Reversible Lys26 CNP-38 PEG4×10 kDa Conjugate [Conjugate 11i]”, in series [1], the “MAP during the remaining ten time points versus vehicle” value was “no difference in MAP”. In addition, in series [1], the “change in MAP at the 5, 15 and 30 min post dose time points compared to predose” value was “physiological increase in MAP”. The “MAP (mean ± SD)” value in series [1] (5 min post dose) was determined as 122.8 ± 5.9 mmHg; in series [1] (15 min post dose) it was 121.5 ± 7.5 mmHg; in series [1] (30 min post dose), 111.5 ± 13.7 mmHg; in series [1] (predose), 106.4 ± 10.7 mmHg. Further, in series [1] (subcutaneous, dosage equivalent to CNP-38), the “effect on blood pressure (conclusion)” value is recorded as “did not decrease blood pressure”.

(Values after patent publication US11154593B2, “CNP prodrugs with large carrier moieties” (ASCENDIS PHARMA GROWTH DISORDERS A/S, priority 2016, dated 2021).)
